Reference: article PMC8712301, “Novel CYP11B-ligand [^123/131I]IMAZA as promising theranostic tool for adrenocortical tumors: comprehensive preclinical characterization and first clinical experience” (European Journal of Nuclear Medicine and Molecular Imaging, 2021)
Like-named read-outs stand apart in the source and are kept apart here.

Columns and labels:
[1] = Metabolic inactivation by human liver microsomes in vitro (radio-HPLC); format: in vitro ADME; settings: for half-life at 0.17 MBq/ml: human, pH 7.2, 125I-labeled compound, liver microsomes 0.2 mg/ml, NADPH, 37 °C, mean ± S.D., read-out: In vitro T1/2 in human liver microsomes; for Metabolic stability compared with [125I]IMTO: radio-HPLC
Method: Metabolic degradation was determined by co-incubation of the tracers with human liver microsomes (Sigma, M0317). Experiments were conducted in triplicates. Incubation mixtures consisted of liver microsomes (0.2 mg/ml), the respective ^125I-labeled compound (0.1 MBq), MgCl2 (3.3 mM), and NADPH (1.3 mM) in a total volume of 0.6 ml K3PO4 puffer (25 mM, pH 7.2). The reaction was started with the addition of NADPH and incubated at 37 °C. At predefined time points, aliquots were removed, and the reaction was terminated by adding 160 µL ice-cold methanol. After centrifugation (5000 × g, 4 °C for 4 min), the supernatant was analyzed by radio-HPLC (see experimental details and Supplementary Fig. 1 in Supplement).

[2] = biological target: T1, human CYP11B1 (Homo sapiens, UniProt P15538); assay: Inhibition of CYP11B1 in stably transfected Y1-hsCyp11B1 cells; format: cell-based
T1 construct: expressed in transfected cells; host or cells: murine adrenocortical cancer cell line Y1 (Y1-hsCyp11B1, stably transfected)
T1 sequence (P15538 25-503): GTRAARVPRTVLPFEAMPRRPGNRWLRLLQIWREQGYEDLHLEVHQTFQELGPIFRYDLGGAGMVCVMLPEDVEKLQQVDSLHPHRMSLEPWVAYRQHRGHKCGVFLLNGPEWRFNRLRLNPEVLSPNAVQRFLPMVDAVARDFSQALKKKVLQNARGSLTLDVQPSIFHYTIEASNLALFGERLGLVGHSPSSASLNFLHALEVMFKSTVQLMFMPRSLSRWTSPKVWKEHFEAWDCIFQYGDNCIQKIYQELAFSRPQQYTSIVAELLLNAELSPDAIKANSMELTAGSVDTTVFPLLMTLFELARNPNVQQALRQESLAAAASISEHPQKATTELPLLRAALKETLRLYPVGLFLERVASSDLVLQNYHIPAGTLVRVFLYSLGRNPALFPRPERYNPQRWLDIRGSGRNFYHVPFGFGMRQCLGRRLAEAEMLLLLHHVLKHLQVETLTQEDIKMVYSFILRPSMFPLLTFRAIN
Method: (§1) The human adrenocortical cell line NCI-H295 and the murine adrenocortical cancer cell line Y1 transfected with either human CYP11B1 or CYP11B2 were used for determination of IC50 values as already described.
(§2) IC50 values were calculated from all values using the program GraphPad Prism5®. All results are expressed as mean ± standard deviation.

[3] = system: NCI-H295 cells; assay: Steroid secretion in NCI-H295 cells after 48-h incubation; format: cell-based, human; settings: for Production of the investigated hormones: higher concentrations; for Upstream steroids 17-OH-progesterone and androstenedione: lower concentrations 0.1-10 nM
Method: as §1
Fig. 2 Steroid secretion in NCI-H295 cells after 48-h incubation with IMTO, IMAZA, 3-tetrahydrofurylester, and 2,2-difluoroethylester (0.1–10,000 nM). NCI-H295 cells were incubated for 48 h with the four compounds. Each experiment was performed in triplicates. At the end of the incubation period, steroid hormones (cortisol, aldosterone, 17-OH-P, and androstenedione) were determined in the cell supernatant by commercially available assays

[4] = Lipophilicity estimated from HPLC retention times
[5] = biological target: T2, human CYP11B2 (Homo sapiens, UniProt P19099); assay: Inhibition of CYP11B2 in stably transfected Y1-hsCyp11B2 cells; format: cell-based
T2 construct: expressed in transfected cells; host or cells: murine adrenocortical cancer cell line Y1 (Y1-hsCyp11B2, stably transfected)
T2 sequence (P19099 25-503): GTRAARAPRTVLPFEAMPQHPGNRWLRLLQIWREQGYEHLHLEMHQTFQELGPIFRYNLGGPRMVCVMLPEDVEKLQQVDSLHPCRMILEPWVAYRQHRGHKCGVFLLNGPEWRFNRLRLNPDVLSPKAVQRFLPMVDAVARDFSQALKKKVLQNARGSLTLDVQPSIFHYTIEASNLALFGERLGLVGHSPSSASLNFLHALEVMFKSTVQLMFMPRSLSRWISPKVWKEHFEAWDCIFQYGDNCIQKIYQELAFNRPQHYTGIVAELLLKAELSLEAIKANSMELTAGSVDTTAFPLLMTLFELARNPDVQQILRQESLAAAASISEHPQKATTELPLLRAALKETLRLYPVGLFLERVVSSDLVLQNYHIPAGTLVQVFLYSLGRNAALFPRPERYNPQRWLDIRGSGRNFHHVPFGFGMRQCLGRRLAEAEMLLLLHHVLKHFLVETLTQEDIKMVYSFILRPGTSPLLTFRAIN
Method: as §1, §2

[6] = system: metastatic ACC; assay: Dosimetry and endoradiotherapy with [131I]IMAZA in a patient with metastatic ACC; format: in vivo, human; settings: patient #1, derived from diagnostics with [123I]IMTO
[7] = system: advanced ACC; assay: Diagnostic imaging and biokinetics with [123I]IMTO and [123I]IMAZA in patients with advanced ACC; format: in vivo, human; settings: kinetics recalculated for 131I from 123I diagnostics in patients
Method: Three patients (#1, #2, and #3) were investigated by [^123I]IMAZA (administered doses, 117, 163, and 182 MBq, respectively) and subsequently by [^123I]IMTO (176, 169, and 146 MBq, respectively). The time interval between the imaging studies was at least 5 days. Scintigraphic imaging was performed using a Siemens Symbia dual-head gamma camera equipped with medium-energy parallel-hole collimators. Activity concentration was measured in whole blood samples drawn at 2 min, 5 min, 15 min, 1 h, 2.5 h, 5 h, and 23 h after the administration. Plasma activity was analyzed in patient #1.

[8] = system: metastatic ACC; assay: Dosimetry and endoradiotherapy with [131I]IMAZA in a patient with metastatic ACC; format: in vivo, human; settings: patient #1, derived from diagnostics with [123I]IMTO; remark: listed apart in the source
From the text: Patient #1 had experienced disease progression with a more than fourfold increase in their dominant lesions within only 4 months after a phase of disease stabilization after standard treatment with mitotane and eight courses of combination chemotherapy with etoposide, doxorubicin, and cisplatin. They received therapeutic doses with 28.2 GBq [^131I]IMAZA 1 month and with 30.5 GBq [^131I]IMAZA 7 months after the evaluation with [^123I]IMAZA. Prior to the first treatment, the absorbed dose to the blood was measured with a tracer activity of 72 MBq [^131I]IMAZA as a surrogate for the exposure of the dose-limiting organ, the red bone marrow. The absorbed dose to the blood was estimated from assessments of the activity kinetics in total body and blood up to 48 h when the mean activity concentrations had dropped to 5% of the values at 5 min after the administration in the total body and to 1% in the blood. During therapy, the total body activity retention was measured with a survey meter in the ceiling over the patient’s bed. Gamma camera whole body scans accompanied by blood sampling were acquired starting 4 days post-administration after the first and 2 days after the second therapy until dismissal. SPECT/CT imaging was performed after 4 and 5 days, respectively.
Tumor evaluation was performed by [^18F]FDG PET/CT at baseline and 2, 5, 8, 11, 14, and 21 months after administration of the first treatment dose. Subsequently, the patient declined further follow-up imaging or additional therapeutic interventions.

[9] = system: advanced ACC; set-up: method as in PMID 15898346, PMID 29452402; settings: advanced ACC ref 10, 11; cited from earlier work

C[C@H](c1ccc(I)cc1)n1cncc1C(=O)N1CCC1 [Compound 5, (R)-1-[1-(4-Iodophenyl)ethyl]-1H-imidazole-5-carboxylic acid azetidinylamide]
half-life at 0.17 MBq/ml ([1]; human liver microsomes): 26.1 ± 5.5 min
IC50 ([2]; stably transfected Y1-hsCyp11B1 cells, substrate deoxycortisol (1 µM), mean of at least three experiments in duplicates, read-out: IC50 CYP11B1): 3.2 ± 0.1 nM
Production of the investigated hormones [3]: completely stopped
Upstream steroids 17-OH-progesterone and androstenedione [3]: accumulation of the upstream steroids 17-OH-progesterone and androstenedione was observed
Lipophilicity compared with IMTO [4]: lower
IC50 ([5]; stably transfected Y1-hsCyp11B2 cells, substrate 11-deoxycorticosterone (1 µM), mean of at least three experiments in duplicates, read-out: IC50 CYP11B2): 1.2 ± 0.1 nM

C[C@H](c1ccc(I)cc1)n1cncc1C(=O)OC1CCOC1 (stereo partly drawn) [Compound 3, (R)-1-[1-(4-Iodophenyl)ethyl]-1H-imidazole-5-carboxylic acid 3-tetrahydrofurylester]
Metabolic stability compared with [125I]IMTO ([1]; human liver microsomes): nearly equal or even better metabolic stability
half-life at 0.17 MBq/ml [1]: 7.4 ± 2.8 min
IC50 [2]: 5.3 ± 5.9 nM
Production of the investigated hormones [3]: completely stopped
Upstream steroids 17-OH-progesterone and androstenedione [3]: accumulation of the upstream steroids 17-OH-progesterone and androstenedione was observed
Lipophilicity compared with IMTO [4]: comparable
IC50 [5]: 2.9 ± 1.6 nM

COC(=O)c1cncn1[C@H](C)c1ccc(I)cc1 [Compound 1, (R)-1-[1-(4-Iodophenyl)ethyl]-1H-imidazole-5-carboxylic acid methyl ester]
half-life at 0.17 MBq/ml ([1]; human liver microsomes): 7.3 ± 3.6 min
melting point: 72 to 74 °C

COC(=O)c1cncn1C(C)c1ccc([131I])cc1 (stereo not shown) [[^131I]IMTO]
Residence time per liter of whole blood [6]: 0.55 h
Mean blood absorbed dose [7]: 0.11 Gy/GBq
Blood absorbed dose [8]: 0.17 Gy/GBq

Clc1ccc(C(c2ccccc2Cl)C(Cl)Cl)cc1 (stereo not shown) [mitotane]
Response rate [9]: ≤ 24%

C[C@H](c1ccc(I)cc1)n1cncc1C(=O)OCC(F)F [Compound 4, (R)-1-[1-(4-Iodophenyl)ethyl]-1H-imidazole-5-carboxylic acid 2,2-difluoroethylester]
Metabolic stability compared with [125I]IMTO ([1]; human liver microsomes): nearly equal or even better metabolic stability
half-life at 0.17 MBq/ml [1]: 7.5 ± 0.87 min
IC50 [2]: 0.3 ± 0.4 nM
Production of the investigated hormones [3]: completely stopped
Upstream steroids 17-OH-progesterone and androstenedione [3]: accumulation of the upstream steroids 17-OH-progesterone and androstenedione was observed
Lipophilicity compared with IMTO [4]: comparable
IC50 [5]: 4.5 ± 0.5 nM

C[C@H](c1ccc(I)cc1)n1cncc1C(=O)O [Compound 2, (R)-1-[1-(4-Iodophenyl)ethyl]-1H-imidazole-5-carboxylic acid]
melting point: > 250 °C (dec.)
IC50 [5]: 611 ± 1040 nM
